The target in series [1] is T1, GABAA receptor α1/β1 (α1 subunit) (Rattus norvegicus, UniProt P15431+P62813, P15431:DEL334-439/P15431:INS334GT/P62813:DEL341-408/P62813:INS341T).
T1 construct: gene Gabra1; purified α1/β1 receptor with M3/M4 loop truncations (α1-LT: Y341-P408 replaced with Thr; β1-LT: K334-K439 replaced with Gly-Thr), C-terminal His8 tag; with GABAA receptor β1 subunit (Gabrb1, P15431)
Kind of series: radioligand saturation binding by scintillation proximity assay on purified receptor in L-MNG.

Series [2] concerns the molecule itself. Kind of series: SEC; fluorescence detection SEC (FSEC) of 8-12 oocytes solubilised with 40 mM C12M; Superose6 10/300 GL in TBS pH 8.0, 1 mM C12M, 1 mM EDTA; GFP fluorescence of the tagged subunit followed; ferritin and EGFP as standards.

Two molecules from article PMC6054424, “Expression and purification of a functional heteromeric GABAA receptor for structural studies” (PLoS ONE, 2018) can be followed below.

The term Kd denotes the equilibrium constant for the complex coming apart. One may read the stoichiometry N as the number of molecules, sites or subunits per partner or assembly.

T1 sequence (P62813 with tags, fused parts or gaps DEL341-408/INS341T): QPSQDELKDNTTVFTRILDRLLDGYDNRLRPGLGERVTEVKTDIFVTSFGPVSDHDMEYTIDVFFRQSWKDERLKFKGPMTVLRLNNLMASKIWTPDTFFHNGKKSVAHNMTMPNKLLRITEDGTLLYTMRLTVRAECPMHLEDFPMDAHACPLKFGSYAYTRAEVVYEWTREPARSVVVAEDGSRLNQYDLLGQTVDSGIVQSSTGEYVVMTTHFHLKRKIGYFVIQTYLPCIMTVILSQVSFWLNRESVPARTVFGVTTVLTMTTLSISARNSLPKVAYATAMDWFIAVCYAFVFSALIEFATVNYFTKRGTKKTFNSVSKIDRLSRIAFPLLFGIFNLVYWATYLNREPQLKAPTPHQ
T1 sequence (P15431 with tags, fused parts or gaps DEL334-439/INS334GT): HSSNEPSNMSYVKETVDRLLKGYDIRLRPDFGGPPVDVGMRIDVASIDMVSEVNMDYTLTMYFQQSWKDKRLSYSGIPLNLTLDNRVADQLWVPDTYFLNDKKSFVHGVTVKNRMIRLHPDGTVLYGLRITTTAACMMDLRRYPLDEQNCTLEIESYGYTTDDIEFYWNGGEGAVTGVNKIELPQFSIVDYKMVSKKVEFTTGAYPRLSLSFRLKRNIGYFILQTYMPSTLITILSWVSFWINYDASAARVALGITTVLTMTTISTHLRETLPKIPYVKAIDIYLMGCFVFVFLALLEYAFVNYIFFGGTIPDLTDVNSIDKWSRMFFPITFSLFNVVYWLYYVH

On to `NCc1cc(=O)[nH]o1` [muscimol], for which, in series [1], binding was characterised by a dissociation constant (Kd) of 24 ± 1.1 nM.

B1: GluClα-EGFP (α subunit of the glutamate-gated chloride channel from C. elegans, EGFP in the M3/M4 loop) (receptor, UniProt G5EBR3 21-461, looked up)
chain: QQARTKSQDIFEDDNDNGTTTLESLARLTSPIHIPIEQPQTSDSKILAHLFTSGYDFRVRPPTDNGGPVVVSVNMLLRTISKIDVVNMEYSAQLTLRESWIDKRLSYGVKGDGQPDFVILTVGHQIWMPDTFFPNEKQAYKHTIDKPNVLIRIHNDGTVLYSVRISLVLSCPMYLQYYPMDVQQCSIDLASYAYTTKDIEYLWKEHSPLQLKVGLSSSLPSFQLTNTSTTYCTSVTNTGIYSCLRTTIQLKREFSFYLLQLYIPSCMLVIVSWVSFWFDRTAIPARVTLGVTTLLTMTAQSAGINSQLPPVSYIKAIDVWIGACMTFIFCALLEFALVNHIANKQGVERKARTEREKAEIPLLQNLHNDVPTKVFNQEEKVRTVPLNRRQMNSFLNLLETKTEWNDISKRVDLISRALFPVLFFVFNILYWSRFGQQNVLF
notes: glutamate-gated chloride channel α subunit (GluClα), C. elegans; source: Xenopus oocytes injected with synthetic mRNA, in C12M-solubilised oocytes; not shown: EGFP, internal (M3/M4 loop)
B1: the “stoichiometry N” value in series [2] turned out to be 5.
